# In US20160108005A1, “TREATMENT OR PREVENTION OF DEPRESSION USING MENTHOL AND/OR ICILIN” (NESTEC S.A., priority 2013, published 2016):
# What was measured:
# Format in all cases: cell-based
# [1] = tested on: neocortex; assay: action potential threshold in mouse brain slice recordings
# Text: (§1) A mouse brain slice was used to study the effects of Menthol, Linalool (another transient receptor potential M8 (TRPM8) channel agonist) and Icilin. The amygdaloid complex is located within the medial temporal lobe in neocortex and amygdala. The lateral and basolateral nuclei of the amygdaloid complex receive sensory information from cortical and thalamic structures, process the information, and then transmit the information, either directly or through the basal nucleus, to the central nucleus. For experimental analysis of neuronal activity, synaptic responses from the basolateral complex can be evoked electrically using electrodes, and the action potentials can be measured.
# [2] = tested on: Lateral Amygdala glutamatergic neuron (in a mouse brain slice); assay: whole cell, current clamp recordings with increasing concentration of gabazine (spontaneous action potential bursts); settings: Menthol 250 μM applied extracellularly 10 minutes previous to and during increasing concentrations of gabazine; FIG. 5 compared to FIG. 3
# Text: as §1, with “measured. […] As shown, neurons spontaneously present action potential bursts due to massive presynaptic discharges.” for “measured.”
# [3] = tested on: Lateral Amygdala glutamatergic neuron (in a mouse brain slice); assay: whole cell, current clamp recordings, 2.5 s square pulse at high depolarization (approximately −30 mV); settings: for inactivation of the sodium fast channels / neuronal firing: square pulse of 2.5 s at high depolarization of membrane potential (approximately −30 mV), relative to control, FIG. 2
# Text: as §1, with “measured. […] A square pulse of 2.5 s was applied at high depolarization of membrane potential (approximately −30 mV).” for “measured.”
Compound,amount of current required to trigger an action potential [1],threshold to trigger an action potential [1],spontaneous action potential bursts [2],action potentials at higher stimulation levels [3],inactivation of the sodium fast channels / neuronal firing [3]
CC1CCC(C(C)C)C(O)C1 (stereo not shown) [Menthol],increase the amount of current required to trigger an action potential,increase the threshold to trigger an action potential,complete absence or a strongly decreased presence of spontaneous bursts,abort action potentials at higher stimulation levels,inactivation of the sodium fast channels happens sooner relative to control
C=CC(C)(O)CCC=C(C)C (stereo not shown) [Linalool],,,,,inactivation of the sodium fast channels happens sooner relative to control
O=C1NC(c2cccc([N+](=O)[O-])c2)=CCN1c1ccccc1O [Icilin],increase the amount of current required to trigger an action potential,increase the threshold to trigger an action potential,,abort action potentials at higher stimulation levels,inactivation of the sodium fast channels happens sooner relative to control
